# According to patent US20130197043A1, “USE OF THE FETAL REPROGRAMMING OF A PPAR AGONIST” (SNU R&DB FOUNDATION, priority 2010, published 2013):
# Tests used:
# [1] = system: cytosolic calcium in differentiated muscle cells; experiment: Analysis of cytosolic calcium (Flou4, confocal microscope); assay type: cell-based, mouse; settings: 300 nM, 10 mM caffeine, calcium-free Kreb solution
# Experimental: An experiment using a calcium-specific dye reagent, Flou4(Molecular probe), was conducted in order to confirm the effect on concentration of cytosolic calcium by the changes of RYR, SERCA, and PLN. The experiment method is as follows. The isolated muscle cells were grown on a culture plate with an attached glass slide through primary culture, and then differentiated into myotube while being treated with 300 nM of PPAR δ agonist (CMDD1111). Flou4 (final concentration: 5 μM) dye reagent was put into the differentiated muscle cells, which were then cultured for 30 minutes. The calcium-free Kreb solution was used as a culture medium to measure the change of cytosolic calcium, and treatment with 10 mM of caffeine was conducted to activate calcium channels. Intracellular calcium ion change was measured by using a confocal microscope. As the measurement result, the retention time of cytosolic calcium was increased by 43% (592±60 versus 847±77 sec) in the muscle cell to which PPAR δ agonist (CMDD1111) was added (FIG. 13). The reason was that expressions of RYR regulating calcium efflux and PLN suppressing calcium influx in the sarcoplasmic membrane were increased by PPAR δ. […]
# [2] = system: gene expression in gastrocnemius muscle; experiment: Gene expression analysis using microarray; assay type: in vivo, mice
# Source text: As for an animal, the gastrocnemius muscle of 3-week old mice fetal-reprogrammed by PPAR δ agonist (CMDD1111) was resected, and then total RNA was extracted by using the Trizol reagent (Gibco). The isolated RNA was subjected to quantitative and purity verification processes, and then used for gene expression analysis using a Mouse 430 2.0 (Affimatrix) chip.
# [3] = system: gene expression in muscle; experiment: Gene expression analysis using real-time PCR in fetal-reprogrammed mice; assay type: in vivo
# Experimental: A gene expression analysis experiment using the real-time PCR was conducted to further verify Miroarray analysis results. As for mouse group subjected to fetal reprogramming by administration of PPAR δ agonist (CMDD1111) during a muscular development period, there were increases in expression of core regulators for fatty acid oxidation and thermogenesis, such as carnitine palmitoyl transferase 1a (CPT-1a: 1.5 fold), uncoupling protein 3 (UCP3: 4.2 fold), acyl Co-A synthetase (ACSL: 1.4 fold), acyl Co-A dehydrogenase (ACAD10: 2.0 fold), and NDUFA12 (1.3 fold). In addition, there was a remarkable increase in expression of Adiponectin (ADIPOQ: 2.5 fold), which are commonly expressed in the slow muscle fiber and has been known to increase fatty acid oxidation to improve diabetes (FIG. 9).
# [4] = system: mice subjected to fetal reprogramming; experiment: Body weight gain on high-fat feedstuff of fetal-reprogrammed mice; assay type: in vivo; settings: 13-week old mice, 35% fat feedstuff, 84 days
# Source text: Lipometabolism has deep correlation with the occurrence of obesity and diabetes. Therefore, the present inventors checked the fetal reprogramming effect of PPAR δ on the occurrence of metabolic syndrome. The control group and administration group of 13-week old mice were fed with high-fat feedstuff (fat content: 35%) over a total of 84 days while being weighed once per week. As a result, it may be seen that, the body weight gain was suppressed by 8% in the mice subjected to fetal reprogramming by PPAR δ agonist compound (CMDD1111) as compared with the control group, as shown in FIG. 18.
# [5] = Maternal treatment: side effects, fetal body weight, growth, skeleton staining; assay type: in vivo, mice
# Experimental: The present inventors used a method of administering a PPAR δ agonist to a pregnant mother (maternal treatment) in order to investigate the role of fetal reprogramming of PPAR δ during mammalian development. For the fetal reprogramming, the PPAR δ agonist was orally administered to pregnant mice at a concentration of 10 mg/kg every day, and a specific experiment method was summarized in FIG. 1.
# Fertile female mice and male mice were bred, and then pregnancy or not was checked by plug confirmation. CMDD1111 was orally administered to pregnant female mice at a concentration of 10 mg/kg once per day every day for six weeks (gestation and lactation periods). Side effects due to the administered material were not observed during the gestation period. The weight of a fetus group administered with vehicle during the gestation period was 1.33±0.11 g, and the weight of a fetus group administered with CMDD1111 was 1.37±0.09 g. The weight difference between the two groups was not shown (FIG. 3). In addition, growth inhibition or promotion due to the administered material was not observed in the comparison results of growth rate of fetus for 3 weeks (FIG. 4). There was no difference in body weight between the two groups as adults (FIG. 5). Deformity due to the administered material was not observed in the skeleton staining results using Alizaren red S and Alician blue dye (FIG. 6).
# [6] = microarray, gastrocnemius muscle, 3-week old mice
# [7] = fetal-reprogrammed mouse muscle
smiles,measurement,setting,value
Cc1cc(SC(Cc2ccccc2)c2sc(-c3ccc(C(F)(F)F)cc3)nc2C)ccc1OCC(=O)O (stereo not drawn) [CMDD1111],increase of retention time of cytosolic calcium,[1],43%
same,retention time of cytosolic calcium,[1],847 ± 77 s
same,"expressions of genes commonly expressed in the heart muscle (RYR2, ATP2A2, PLN)",[2]; fetal-reprogrammed mouse group,remarkably increased
same,"expression of ATPase, Ca2+ transporting (SERCA)",[2]; [6],1.4 fold
same,expression of CamIIb,[2]; [6],1.4 fold
same,expression of CamIId,[2]; [6],1.8 fold
same,expression of HDAC4 (decrease),[2]; [6],−1.5 fold
same,expression of Mef2a,[2]; [6],1.4 fold
same,expression of PPARγ coactivator 1a,[2]; [6],1.7 folds
same,expression of Troponin I,[2]; [6],3.2 fold
same,expression of Troponin T2,[2]; [6],2.3 fold
same,expression of acyl CoA dehydrogenase (ACAD),[2]; [6],1.7 fold
same,expression of acyl CoA synthetase (ACSL),[2]; [6],1.5 fold
same,expression of carnitine palmitoyl transferase 1a (CPT-1a),[2]; [6],1.4 fold
same,expression of cytochrome 8a (COX8A),[2]; [6],1.7 fold
same,expression of myosin binding protein C3 (MYBPC3),[2]; [6],2.8 fold
same,expression of myosin heavy chain 6 (Myh6),[2]; [6],2.7 fold
same,expression of myosin light chain 7 (Myl7),[2]; [6],2.9 fold
same,expression of pantothenate kinase 1 (PANK1),[2]; [6],2.4 fold
same,expression of phospholamban (PLN),[2]; [6],2.8 fold
same,expression of ryanodine receptor 2 (RYR2),[2]; [6],2.8 fold
same,expression of ryanodine receptor 3 (RYR3),[2]; [6],2.0 fold
same,expression of ubiquinone,[2]; [6],2.0 fold
same,expression of uncoupling protein 2 (UCP2),[2]; [6],1.5 fold
same,expression of uncoupling protein 3 (UCP3),[2]; [6],2.3 fold
same,expression of Adiponectin (ADIPOQ),[3]; [7],2.5 fold
same,expression of CaMKII B,[3]; [7],4.5 fold
same,expression of CaMKII D,[3]; [7],3.2 fold
same,"expression of HDAC4, decreased by",[3]; [7],0.6 fold
same,expression of NDUFA12,[3]; [7],1.3 fold
same,expression of PGC-1α,[3]; [7],1.6 fold
same,expression of acyl Co-A dehydrogenase (ACAD10),[3]; [7],2.0 fold
same,expression of acyl Co-A synthetase (ACSL),[3]; [7],1.4 fold
same,expression of carnitine palmitoyl transferase 1a (CPT-1a),[3]; [7],1.5 fold
same,expression of uncoupling protein 3 (UCP3),[3]; [7],4.2 fold
same,expression of ATP2A2,[3]; versus control group,2.2 fold
same,expression of MYH6,[3]; versus control group,6.8 fold
same,expression of My17,[3]; versus control group,4.8 fold
same,expression of RYR2,[3]; versus control group,2.2 fold
same,expression of RYR3,[3]; versus control group,3.6 fold
same,expression of TNNI3,[3]; versus control group,5.8 fold
same,expression of phospholamban,[3]; versus control group,3.2 fold
same,body weight gain suppression versus control,[4],8%
same,growth inhibition or promotion (growth rate of fetus),[5]; 3 weeks,not observed
same,deformity in skeleton staining,[5]; Alizaren red S and Alician blue dye,not observed
same,body weight versus vehicle group,[5]; as adults,no difference
same,side effects due to the administered material,"[5]; gestation period, 10 mg/kg oral once per day",not observed
same,weight of fetus group,"[5]; immediately after birth, mother 10 mg/kg during gestation",1.37 ± 0.09 g
